Reference: ChEMBL document CHEMBL1157146, “Structure-activity relationship of human GLO I inhibitory natural flavonoids and their growth inhibitory effects” (Bioorg Med Chem, 2008)
Activity calls are given as the source filed them. The calls are words filed in the database; no cut-off is given here.

How the values were obtained:
[1] = target: T1, Lactoylglutathione lyase (Homo sapiens, UniProt Q04760); assay: Inhibition of human recombinant His-tagged Glyoxalase 1 expressed in Sf21-Baculovirus system at 100 uM
Target sequence in this assay (Q04760 2-184 limits assumed): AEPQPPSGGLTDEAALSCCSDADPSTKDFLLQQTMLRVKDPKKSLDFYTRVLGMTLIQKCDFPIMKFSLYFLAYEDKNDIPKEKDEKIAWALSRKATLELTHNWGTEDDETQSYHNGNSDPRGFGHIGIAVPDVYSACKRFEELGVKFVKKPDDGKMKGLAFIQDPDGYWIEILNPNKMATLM

[2] = target: T1, Lactoylglutathione lyase; assay: Inhibition of human recombinant His-tagged Glyoxalase 1 expressed in Sf21-Baculovirus system
Target sequence in this assay (Q04760 whole entry): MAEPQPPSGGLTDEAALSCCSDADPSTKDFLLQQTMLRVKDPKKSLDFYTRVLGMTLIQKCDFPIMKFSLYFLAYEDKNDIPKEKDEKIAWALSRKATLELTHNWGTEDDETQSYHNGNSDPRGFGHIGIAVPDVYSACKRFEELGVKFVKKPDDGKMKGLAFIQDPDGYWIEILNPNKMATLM

[3] = tested on: HL-60; assay: Antiproliferative activity against human HL60 cells at 30 uM after 48 hrs by MTS assay; type: functional, cell-based

## O=c1c(O)c(-c2ccc(O)cc2)oc2cc(O)cc(O)c12 [KAEMPFEROL]
[1]
  inhibition: 60%
[2]
  IC50: 20.6 µM
[3]
  Activity: Active

## O=c1c(O[C@@H]2O[C@H](CO)[C@H](O)[C@H](O)[C@H]2O)c(-c2ccc(O)c(O)c2)oc2cc(O)cc(O)c12
[3]
  Activity: Active

## O=c1c(O)c(-c2ccc(O)c(O)c2)oc2cc(O)cc(O)c12
[3]
  Activity: Active

## O=c1cc(-c2ccccc2)oc2cc(O)c(O)c(O)c12 [BAICALEIN]
[2]
  IC50: 11 µM
[3]
  Activity: Active

## O=c1cc(-c2ccc(O)c(O)c2)oc2cc(O)cc(O)c12 [LUTEOLIN]
[2]
  IC50: 7.7 µM
[3]
  Activity: Active

## COc1c(O[C@H]2O[C@H](C(=O)O)[C@@H](O)[C@H](O)[C@H]2O)cc2oc(-c3ccccc3)cc(=O)c2c1O
[3]
  Activity: Active

## N[C@@H](CCC(=O)N[C@@H](CSCc1ccc(Br)cc1)C(=O)NCC(=O)OC1CCCC1)C(=O)OC1CCCC1
[3]
  Activity: Active

## O=C1C[C@@H](c2ccc(O)cc2)Oc2cc(O)cc(O)c21
[1]
  inhibition: 50%
[3]
  Activity: Active

## O=C(O)[C@H]1O[C@@H](Oc2cc3oc(-c4ccccc4)cc(=O)c3c(O)c2O)[C@H](O)[C@@H](O)[C@@H]1O
[3]
  Activity: Active

## O=c1c(O)c(-c2cc(O)c(O)c(O)c2)oc2cc(O)cc(O)c12
[3]
  Activity: Active
